Measurements from the SangsterLogP compilation.

Assay: method code SF, from DOI: 10.1016/0223-5234(90)90141-o
Settings: pH 7.4

| SMILES | logD |
| --- | --- |
| COc1cc(S(C)=O)ccc1-c1nc2nccnc2[nH]1 (stereo unspecified) | 0.66 |
| COc1cccc(OC)c1-c1nc2cnccc2[nH]1 | 1.66 |
| COc1ccc(-c2nc3ccncc3n2C)c(OC)c1 | 2.68 |
| COc1ccc(-c2nc3cnccc3n2C)c(OC)c1 | 2.66 |
| COc1ccc(-c2nc3cnccc3o2)c(OC)c1 | 2.42 |

Now from value to molecule:

| logD | SMILES |
| --- | --- |
| 0.39 | COc1cc(S(C)=O)ccc1-c1nc2cnncc2[nH]1 (stereo unspecified) |
| 0.23 | COc1cc(S(C)=O)ccc1-c1nc2nnccc2[nH]1 (stereo unspecified) |
| 2.15 | COc1cc(S(C)=O)ccc1-c1nc2cnccc2n1C (stereo unspecified) |
| 2.21 | COc1cc(S(C)=O)ccc1-c1nc2cnccc2s1 (stereo unspecified) |
| 0.53 | COc1cc(S(C)=O)ccc1-c1nc2ncncc2[nH]1 (stereo unspecified) |
| 1.23 | COc1cc(S(C)=O)ccc1-c1nc2cnccc2[nH]1 (stereo unspecified) |
